Data reported in publication PMC9898036, “VIP152 is a selective CDK9 inhibitor with pre-clinical in vitro and in vivo efficacy in chronic lymphocytic leukemia” (Leukemia, 2022).

Legend:
Assay in all cases: DiscoverX KINOMEscan kinase profiling (468 assays)
Type in all cases: binding
human kinome [1] = target: human kinome (Homo sapiens, UniProt O14730); details: kinase RIOK3 (Entrez RIOK3); compound concentration 1000 nM; read-out: Percent Control
Method: (§1) Kinomescan Kinase Profiling Assay
(§2) Kinomescan Assay was performed at DiscoverRX and described in Fabian, et al. 2005, Nat.
(§3) Biotechnol. In brief, kinases were produced and subsequently tagged with DNA for qPCR detection.
(§4) Streptavidin-coated magnetic beads were bound to biotinylated kinase ligands to serve as a solid support.
(§5) VIP152 was dissolved in DMSO and tested across a 10 serial threefold dilution set and compared to a test
(§6) compound and a DMSO control.
(§7) Kinome map was produced via TreeSpot
(§8) Analysis from DiscoverRX. […]

human kinome [2] = target: human kinome (Homo sapiens, UniProt O14757); details: CHEK1; 100 nM; read-out: Percent Control
Method: as §1, §2, §3, §4, §5, §6, §7, §8

human kinome [3] = target: human kinome (Homo sapiens, UniProt O14936); details: CASK; 100 nM; read-out: Percent Control
Method: as §1, §2, §3, §4, §5, §6, §7, §8

human kinome [4] = target: human kinome (Homo sapiens, UniProt O60331); details: read-out: Percent Control
Sequence of human kinome (Homo sapiens, UniProt O60331) (O60331 whole entry): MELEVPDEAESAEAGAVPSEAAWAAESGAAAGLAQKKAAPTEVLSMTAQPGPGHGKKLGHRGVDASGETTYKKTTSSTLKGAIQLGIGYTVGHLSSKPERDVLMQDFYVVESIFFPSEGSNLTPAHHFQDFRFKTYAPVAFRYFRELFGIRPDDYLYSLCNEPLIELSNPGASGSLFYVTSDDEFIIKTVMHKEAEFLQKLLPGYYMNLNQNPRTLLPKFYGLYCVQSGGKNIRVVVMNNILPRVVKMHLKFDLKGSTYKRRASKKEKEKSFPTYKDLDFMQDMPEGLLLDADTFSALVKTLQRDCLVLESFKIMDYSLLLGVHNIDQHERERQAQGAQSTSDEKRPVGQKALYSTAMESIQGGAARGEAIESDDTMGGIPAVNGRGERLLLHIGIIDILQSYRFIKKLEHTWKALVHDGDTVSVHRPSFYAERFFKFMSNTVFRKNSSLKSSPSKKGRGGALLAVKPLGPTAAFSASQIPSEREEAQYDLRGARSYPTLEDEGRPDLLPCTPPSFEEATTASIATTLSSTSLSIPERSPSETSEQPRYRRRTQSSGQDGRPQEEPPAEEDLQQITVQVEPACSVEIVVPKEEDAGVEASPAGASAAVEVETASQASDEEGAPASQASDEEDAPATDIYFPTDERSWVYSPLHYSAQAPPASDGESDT
Method: as §1, §2, §3, §4, §5, §6, §7, §8

human kinome [5] = target: human kinome (Homo sapiens, UniProt O94804); details: LOK (Entrez STK10); 100 nM; read-out: Percent Control
Method: as §1, §2, §3, §4, §5, §6, §7, §8

human kinome [6] = target: human kinome (Homo sapiens, UniProt P06241); details: FYN; 100 nM; read-out: Percent Control
Method: as §1, §2, §3, §4, §5, §6, §7, §8

human kinome [7] = target: human kinome (Homo sapiens, UniProt P10721, D816V); details: KIT(D816V); 100 nM; read-out: Percent Control
Method: as §1, §2, §3, §4, §5, §6, §7, §8

human kinome [8] = target: human kinome (Homo sapiens, UniProt P17948); details: FLT1; 100 nM; read-out: Percent Control
Method: as §1, §2, §3, §4, §5, §6, §7, §8

human kinome [9] = target: human kinome (Homo sapiens, UniProt P21860); details: ERBB3; 100 nM; read-out: Percent Control
Method: as §1, §2, §3, §4, §5, §6, §7, §8

human kinome [10] = target: human kinome (Homo sapiens, UniProt P22607); details: FGFR3; 100 nM; read-out: Percent Control
Method: as §1, §2, §3, §4, §5, §6, §7, §8

human kinome [11] = target: human kinome (Homo sapiens, UniProt P27361); details: ERK1 (Entrez MAPK3); 100 nM; read-out: Percent Control
Method: as §1, §2, §3, §4, §5, §6, §7, §8

human kinome [12] = target: human kinome (Homo sapiens, UniProt P29322); details: EPHA8; 100 nM; read-out: Percent Control
Method: as §1, §2, §3, §4, §5, §6, §7, §8

human kinome [13] = target: human kinome (Homo sapiens, UniProt P30530); details: AXL; 100 nM; read-out: Percent Control
Method: as §1, §2, §3, §4, §5, §6, §7, §8

human kinome [14] = target: human kinome (Homo sapiens, UniProt P31152); details: ERK4 (Entrez MAPK4); 100 nM; read-out: Percent Control
Method: as §1, §2, §3, §4, §5, §6, §7, §8

human kinome [15] = target: human kinome (Homo sapiens, UniProt P37173); details: kinase TGFBR2 (Entrez TGFBR2); compound concentration 1000 nM; read-out: Percent Control
Method: as §1, §2, §3, §4, §5, §6, §7, §8

human kinome [16] = target: human kinome (Homo sapiens, UniProt P41743); details: read-out: Percent Control
Sequence of human kinome (Homo sapiens, UniProt P41743) (P41743 whole entry): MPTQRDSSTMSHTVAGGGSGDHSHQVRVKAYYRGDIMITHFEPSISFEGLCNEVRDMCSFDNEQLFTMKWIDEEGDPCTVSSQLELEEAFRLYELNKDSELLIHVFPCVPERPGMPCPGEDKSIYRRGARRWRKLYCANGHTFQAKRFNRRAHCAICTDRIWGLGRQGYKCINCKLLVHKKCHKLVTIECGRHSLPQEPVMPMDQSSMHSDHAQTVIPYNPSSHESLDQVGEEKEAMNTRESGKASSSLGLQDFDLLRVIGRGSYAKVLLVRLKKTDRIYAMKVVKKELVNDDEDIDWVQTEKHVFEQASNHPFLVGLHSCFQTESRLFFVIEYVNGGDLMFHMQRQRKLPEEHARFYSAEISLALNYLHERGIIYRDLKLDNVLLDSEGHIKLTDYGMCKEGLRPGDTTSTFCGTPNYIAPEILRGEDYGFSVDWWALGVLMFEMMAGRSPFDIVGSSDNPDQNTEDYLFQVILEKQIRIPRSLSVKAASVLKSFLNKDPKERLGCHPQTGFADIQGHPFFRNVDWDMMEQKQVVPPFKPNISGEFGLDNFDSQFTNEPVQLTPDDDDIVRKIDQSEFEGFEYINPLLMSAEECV
Method: as §1, §2, §3, §4, §5, §6, §7, §8

human kinome [17] = target: human kinome (Homo sapiens, UniProt P42336, H1047L); details: read-out: Percent Control
Method: as §1, §2, §3, §4, §5, §6, §7, §8

human kinome [18] = target: human kinome (Homo sapiens, UniProt P42679); details: CTK (Entrez MATK); 100 nM; read-out: Percent Control
Method: as §1, §2, §3, §4, §5, §6, §7, §8

human kinome [19] = target: human kinome (Homo sapiens, UniProt P42681); details: kinase TXK (Entrez TXK); compound concentration 1000 nM; read-out: Percent Control
Method: as §1, §2, §3, §4, §5, §6, §7, §8

human kinome [20] = target: human kinome (Homo sapiens, UniProt P80192); details: MLK1 (Entrez MAP3K9); 100 nM; read-out: Percent Control
Method: as §1, §2, §3, §4, §5, §6, §7, §8

human kinome [21] = target: human kinome (Homo sapiens, UniProt Q12852); details: DLK (Entrez MAP3K12); 100 nM; read-out: Percent Control
Method: as §1, §2, §3, §4, §5, §6, §7, §8

human kinome [22] = target: human kinome (Homo sapiens, UniProt Q15208); details: read-out: Percent Control
Sequence of human kinome (Homo sapiens, UniProt Q15208) (Q15208 whole entry): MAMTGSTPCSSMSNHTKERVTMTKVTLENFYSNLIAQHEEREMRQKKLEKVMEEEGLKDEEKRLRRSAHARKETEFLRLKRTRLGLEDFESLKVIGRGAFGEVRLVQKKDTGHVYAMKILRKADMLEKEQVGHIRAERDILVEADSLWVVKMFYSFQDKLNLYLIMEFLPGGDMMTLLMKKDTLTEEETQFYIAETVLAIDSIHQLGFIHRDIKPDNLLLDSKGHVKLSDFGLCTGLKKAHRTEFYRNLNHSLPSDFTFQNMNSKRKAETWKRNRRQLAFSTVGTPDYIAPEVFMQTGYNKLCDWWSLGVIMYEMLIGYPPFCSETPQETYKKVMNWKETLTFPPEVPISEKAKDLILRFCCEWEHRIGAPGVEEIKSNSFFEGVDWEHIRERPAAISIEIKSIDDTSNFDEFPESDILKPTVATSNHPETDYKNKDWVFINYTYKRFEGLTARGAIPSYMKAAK
Method: as §1, §2, §3, §4, §5, §6, §7, §8

human kinome [23] = target: human kinome (Homo sapiens, UniProt Q16513); details: read-out: Percent Control
Sequence of human kinome (Homo sapiens, UniProt Q16513) (Q16513 whole entry): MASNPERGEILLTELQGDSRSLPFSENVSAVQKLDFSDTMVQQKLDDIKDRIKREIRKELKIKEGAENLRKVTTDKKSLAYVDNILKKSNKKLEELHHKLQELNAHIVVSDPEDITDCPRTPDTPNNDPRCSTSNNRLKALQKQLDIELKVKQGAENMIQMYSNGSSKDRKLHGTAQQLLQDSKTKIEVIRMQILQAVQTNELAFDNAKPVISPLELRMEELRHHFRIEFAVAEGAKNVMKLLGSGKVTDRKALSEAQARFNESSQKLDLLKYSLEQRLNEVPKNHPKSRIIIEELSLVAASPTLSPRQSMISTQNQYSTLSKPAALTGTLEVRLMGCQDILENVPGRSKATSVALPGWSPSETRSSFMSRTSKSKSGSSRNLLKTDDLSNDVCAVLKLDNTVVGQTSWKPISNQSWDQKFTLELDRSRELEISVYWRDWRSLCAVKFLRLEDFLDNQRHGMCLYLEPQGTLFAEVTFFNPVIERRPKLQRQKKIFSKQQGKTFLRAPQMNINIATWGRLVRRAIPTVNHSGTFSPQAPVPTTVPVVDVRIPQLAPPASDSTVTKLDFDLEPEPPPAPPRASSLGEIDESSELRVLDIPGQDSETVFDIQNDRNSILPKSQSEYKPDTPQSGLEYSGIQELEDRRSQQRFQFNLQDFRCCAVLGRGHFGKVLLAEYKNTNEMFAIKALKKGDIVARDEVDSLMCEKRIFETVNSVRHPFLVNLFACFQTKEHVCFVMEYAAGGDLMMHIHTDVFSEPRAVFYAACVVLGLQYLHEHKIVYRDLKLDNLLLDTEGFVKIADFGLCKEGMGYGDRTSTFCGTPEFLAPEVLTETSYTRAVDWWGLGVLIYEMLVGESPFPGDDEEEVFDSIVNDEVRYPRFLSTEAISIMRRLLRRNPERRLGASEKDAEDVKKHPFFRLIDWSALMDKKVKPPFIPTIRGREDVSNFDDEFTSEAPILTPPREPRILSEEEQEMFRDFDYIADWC
Method: as §1, §2, §3, §4, §5, §6, §7, §8

human kinome [24] = target: human kinome (Homo sapiens, UniProt Q16620); details: kinase TRKB (Entrez NTRK2); compound concentration 1000 nM; read-out: Percent Control
Method: as §1, §2, §3, §4, §5, §6, §7, §8

human kinome [25] = target: human kinome (Homo sapiens, UniProt Q8WXR4); details: read-out: Percent Control
Sequence of human kinome (Homo sapiens, UniProt Q8WXR4) (Q8WXR4 whole entry): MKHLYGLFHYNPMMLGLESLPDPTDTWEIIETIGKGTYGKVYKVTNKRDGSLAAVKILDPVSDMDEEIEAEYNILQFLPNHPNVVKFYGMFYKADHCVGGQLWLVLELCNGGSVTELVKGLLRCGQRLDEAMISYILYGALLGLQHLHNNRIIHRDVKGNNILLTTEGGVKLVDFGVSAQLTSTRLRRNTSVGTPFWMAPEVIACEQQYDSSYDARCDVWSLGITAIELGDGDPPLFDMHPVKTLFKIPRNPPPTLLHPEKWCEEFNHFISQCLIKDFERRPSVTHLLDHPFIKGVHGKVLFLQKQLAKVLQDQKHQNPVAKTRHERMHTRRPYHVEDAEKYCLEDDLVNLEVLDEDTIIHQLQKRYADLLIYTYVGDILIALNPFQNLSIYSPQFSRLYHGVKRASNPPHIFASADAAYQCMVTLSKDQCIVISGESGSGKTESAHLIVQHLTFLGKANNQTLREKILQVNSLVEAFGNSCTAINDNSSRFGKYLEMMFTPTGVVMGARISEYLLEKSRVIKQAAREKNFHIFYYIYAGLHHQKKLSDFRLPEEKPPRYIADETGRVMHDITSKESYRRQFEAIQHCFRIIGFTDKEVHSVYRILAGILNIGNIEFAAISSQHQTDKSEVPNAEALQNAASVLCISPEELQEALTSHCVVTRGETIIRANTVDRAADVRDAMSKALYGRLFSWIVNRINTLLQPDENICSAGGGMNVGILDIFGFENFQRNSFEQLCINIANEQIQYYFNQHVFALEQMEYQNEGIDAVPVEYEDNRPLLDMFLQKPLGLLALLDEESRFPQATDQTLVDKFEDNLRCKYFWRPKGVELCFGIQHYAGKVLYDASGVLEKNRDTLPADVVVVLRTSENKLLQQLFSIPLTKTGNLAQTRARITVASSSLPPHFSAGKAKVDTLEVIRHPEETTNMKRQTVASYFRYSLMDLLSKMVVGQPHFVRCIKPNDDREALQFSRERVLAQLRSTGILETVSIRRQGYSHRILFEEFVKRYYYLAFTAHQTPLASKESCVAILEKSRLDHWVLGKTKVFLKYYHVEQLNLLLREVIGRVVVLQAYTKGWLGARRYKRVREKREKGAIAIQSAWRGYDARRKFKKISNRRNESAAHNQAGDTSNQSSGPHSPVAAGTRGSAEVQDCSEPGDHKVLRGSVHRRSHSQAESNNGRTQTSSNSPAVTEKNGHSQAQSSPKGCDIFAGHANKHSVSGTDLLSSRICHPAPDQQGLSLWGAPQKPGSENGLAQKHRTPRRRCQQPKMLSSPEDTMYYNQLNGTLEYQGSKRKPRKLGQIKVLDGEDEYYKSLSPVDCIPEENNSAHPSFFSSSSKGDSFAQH
Method: as §1, §2, §3, §4, §5, §6, §7, §8

human kinome [26] = target: human kinome (Homo sapiens, UniProt Q9BUB5); details: MKNK1; 100 nM; read-out: Percent Control
Method: as §1, §2, §3, §4, §5, §6, §7, §8

human kinome [27] = target: human kinome (Homo sapiens, UniProt Q9BZL6); details: read-out: Percent Control
Sequence of human kinome (Homo sapiens, UniProt Q9BZL6) (Q9BZL6 whole entry): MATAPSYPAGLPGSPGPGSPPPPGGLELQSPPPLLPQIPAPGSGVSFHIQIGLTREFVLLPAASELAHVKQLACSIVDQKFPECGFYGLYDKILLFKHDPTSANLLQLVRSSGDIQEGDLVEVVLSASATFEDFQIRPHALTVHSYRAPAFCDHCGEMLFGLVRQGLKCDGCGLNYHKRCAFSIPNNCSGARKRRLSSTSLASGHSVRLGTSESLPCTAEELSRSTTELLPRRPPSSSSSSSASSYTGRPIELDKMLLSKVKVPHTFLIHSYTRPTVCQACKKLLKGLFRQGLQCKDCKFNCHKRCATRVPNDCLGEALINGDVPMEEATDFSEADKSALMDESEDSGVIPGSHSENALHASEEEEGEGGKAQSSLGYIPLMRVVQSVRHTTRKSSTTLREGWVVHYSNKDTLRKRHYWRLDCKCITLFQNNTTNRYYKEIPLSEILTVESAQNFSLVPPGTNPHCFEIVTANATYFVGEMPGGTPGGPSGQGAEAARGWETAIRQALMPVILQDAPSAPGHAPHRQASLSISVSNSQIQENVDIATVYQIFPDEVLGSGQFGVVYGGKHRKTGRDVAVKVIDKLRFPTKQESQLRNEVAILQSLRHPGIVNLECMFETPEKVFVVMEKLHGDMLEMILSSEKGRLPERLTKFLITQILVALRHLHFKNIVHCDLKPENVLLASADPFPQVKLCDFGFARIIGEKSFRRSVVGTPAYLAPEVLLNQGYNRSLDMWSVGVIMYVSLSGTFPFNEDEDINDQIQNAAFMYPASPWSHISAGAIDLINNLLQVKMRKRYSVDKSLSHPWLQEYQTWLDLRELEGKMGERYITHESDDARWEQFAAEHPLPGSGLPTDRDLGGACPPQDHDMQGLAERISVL
Method: as §1, §2, §3, §4, §5, §6, §7, §8

human kinome [28] = target: human kinome (Homo sapiens, UniProt Q9NSY1); details: BIKE (Entrez BMP2K); 100 nM; read-out: Percent Control
Method: as §1, §2, §3, §4, §5, §6, §7, §8

human kinome [29] = target: human kinome (Homo sapiens, UniProt Q9UQB9); details: AURKC; 100 nM; read-out: Percent Control
Method: as §1, §2, §3, §4, §5, §6, §7, §8

human kinome [30] = target: human kinome (Homo sapiens, UniProt Q9Y6E0); details: MST3 (Entrez STK24); 100 nM; read-out: Percent Control
Method: as §1, §2, §3, §4, §5, §6, §7, §8

For `COc1cc(F)ccc1-c1cc(Nc2cc(CS(C)(=N)=O)ccn2)ncc1F` (stereo not shown) [VIP152], the remaining binding at 1 µM (human kinome [1]) was 79%, the remaining binding at 0.1 µM (human kinome [2]) was 100% and the remaining binding at 0.1 µM (human kinome [3]) was 78%. The remaining binding at 0.1 µM (human kinome [4]; PIP5K1C, 100 nM) was 60%, the remaining binding at 1 µM (human kinome [4]; kinase PIP5K1C (Entrez PIP5K1C), compound concentration 1000 nM) was 92% and the remaining binding at 0.1 µM (human kinome [5]) was 95%. It also gave a remaining binding at 0.1 µM (human kinome [6]) of 100%, a remaining binding at 0.1 µM (human kinome [7]) of 100% and a remaining binding at 0.1 µM (human kinome [8]) of 100%. It also gave a remaining binding at 0.1 µM (human kinome [9]) of 100%, a remaining binding at 0.1 µM (human kinome [10]) of 100% and a remaining binding at 0.1 µM (human kinome [11]) of 100%. It also gave a remaining binding at 0.1 µM (human kinome [12]) of 100%, a remaining binding at 0.1 µM (human kinome [13]) of 100% and a remaining binding at 0.1 µM (human kinome [14]) of 100%. It also gave a remaining binding at 1 µM (human kinome [15]) of 93%, a remaining binding at 0.1 µM (human kinome [16]; PRKCI, 100 nM) of 90% and a remaining binding at 1 µM (human kinome [16]; kinase PRKCI (Entrez PRKCI), compound concentration 1000 nM) of 96%. The remaining binding at 0.1 µM (human kinome [17]; PIK3CA(H1047L), 100 nM) was 100%, the remaining binding at 1 µM (human kinome [17]; kinase PIK3CA(H1047L) (Entrez PIK3CA), compound concentration 1000 nM) was 100% and the remaining binding at 0.1 µM (human kinome [18]) was 95%. For the same compound, the remaining binding at 1 µM (human kinome [19]) was 83%, the remaining binding at 0.1 µM (human kinome [20]) was 100% and the remaining binding at 0.1 µM (human kinome [21]) was 100%. The remaining binding at 0.1 µM (human kinome [22]; NDR1 (Entrez STK38), 100 nM) was 100%, the remaining binding at 1 µM (human kinome [22]; kinase NDR1 (Entrez STK38), compound concentration 1000 nM) was 93% and the remaining binding at 0.1 µM (human kinome [23]; PKN2, 100 nM) was 96%. The remaining binding at 1 µM (human kinome [23]; kinase PKN2 (Entrez PKN2), compound concentration 1000 nM) was 92%, the remaining binding at 1 µM (human kinome [24]) was 30% and the remaining binding at 0.1 µM (human kinome [25]; MYO3B, 100 nM) was 100%. The remaining binding at 1 µM (human kinome [25]; kinase MYO3B (Entrez MYO3B), compound concentration 1000 nM) was 68%, the remaining binding at 0.1 µM (human kinome [26]) was 94% and the remaining binding at 0.1 µM (human kinome [27]; PRKD2, 100 nM) was 90%. For the same compound, the remaining binding at 1 µM (human kinome [27]; kinase PRKD2 (Entrez PRKD2), compound concentration 1000 nM) was 88%, the remaining binding at 0.1 µM (human kinome [28]) was 100% and the remaining binding at 0.1 µM (human kinome [29]) was 100%. The remaining binding at 0.1 µM (human kinome [30]) was 100%.
